{"source": "patent US11453632B2", "about": "“1-phenyl-2-phenylethane derivative” (KAO CORPORATION, priority 2018, dated 2022)", "key": {"ERα": {"target": "T1, ERα (Homo sapiens, UniProt P03372)", "T1 construct": "host or cells: HEK293", "T1 sequence (P03372 1-595)": "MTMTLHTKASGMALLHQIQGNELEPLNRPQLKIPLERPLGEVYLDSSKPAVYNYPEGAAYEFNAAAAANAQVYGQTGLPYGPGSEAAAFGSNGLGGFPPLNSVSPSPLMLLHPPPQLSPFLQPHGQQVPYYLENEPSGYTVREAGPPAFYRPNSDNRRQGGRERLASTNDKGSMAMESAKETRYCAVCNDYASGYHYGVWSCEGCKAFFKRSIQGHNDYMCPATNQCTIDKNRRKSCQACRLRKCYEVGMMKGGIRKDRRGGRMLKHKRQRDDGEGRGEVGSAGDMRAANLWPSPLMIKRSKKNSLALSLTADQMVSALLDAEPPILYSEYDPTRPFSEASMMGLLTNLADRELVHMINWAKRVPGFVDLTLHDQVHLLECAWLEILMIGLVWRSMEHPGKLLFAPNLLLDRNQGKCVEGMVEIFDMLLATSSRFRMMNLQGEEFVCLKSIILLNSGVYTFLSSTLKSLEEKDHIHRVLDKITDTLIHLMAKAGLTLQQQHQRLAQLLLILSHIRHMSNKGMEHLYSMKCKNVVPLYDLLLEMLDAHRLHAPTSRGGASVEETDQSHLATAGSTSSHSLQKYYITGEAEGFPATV", "assay": "Ability to activate transcription mediated by ERα (pcDNA3-ERα, pERE luciferase, HEK293 cells)", "type": "cell-based", "conditions": "negative control 0.004573", "protocol": "1) Experimental Method (Measurement of Transcriptional Activity Mediated by ERs)\nHEK293 cells were inoculated at a cell density of 4.0×10^4 cells/well to a 96-well plate. After 12 hours therefrom, the medium was replaced with a culture solution (DMEM containing 5% (v/v) charcoal-treated serum). The cells were cotransfected with pcDNA3-ERα or pcDNA3-ERβ (Promega Corp.) and pERE and pRL-CMV (Promega Corp.) using Lipofectamine 2000 (Invitrogen Corp.) according to the protocol attached to the product. 24 hours after transfection, the medium was replaced with a culture medium containing a test sample, followed by culture for another 24 hours. Then, luciferase activity was measured using Dual-Glo™ Luciferase Assay System (Promega Corp.) according to the attached protocol. The luminescence intensity of firefly luciferase (index for the ability to activate transcription mediated by ERE) was divided by the luminescence intensity of Renilla reniformis luciferase (index for the transfection efficiency of the plasmids) to calculate a relative light unit (RLU)."}, "ERα LBD": {"target": "T2, ERα LBD (Homo sapiens, UniProt P03372)", "T2 construct": "host or cells: HEK293", "T2 sequence (P03372 311-547 limits assumed)": "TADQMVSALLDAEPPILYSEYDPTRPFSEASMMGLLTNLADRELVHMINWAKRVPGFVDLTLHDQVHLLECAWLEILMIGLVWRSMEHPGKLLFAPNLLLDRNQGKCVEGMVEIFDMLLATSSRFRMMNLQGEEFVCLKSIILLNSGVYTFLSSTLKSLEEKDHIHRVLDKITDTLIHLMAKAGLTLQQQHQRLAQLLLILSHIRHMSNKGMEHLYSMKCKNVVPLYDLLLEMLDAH", "assay": "Ability to bind to ERα: pBIND-ERα LBD / GAL4 luciferase reporter in HEK293 cells", "type": "cell-based", "set-up": "key: firefly luciferase / Renilla luciferase luminescence ratio", "conditions": "negative control 0.00847035", "protocol": "A human kidney-derived cell line HEK293 was cultured (37° C., 5% CO2) in Dulbecco's modified Eagle medium (hereinafter, abbreviated to DMEM) containing 10% (v/v) fetal bovine serum (FBS) and penicillin/streptomycin.\n2) Measurement of Binding Activity Against ERs\nSpecifically, HEK293 cells were inoculated at a cell density of 4.0×10^4 cells/well to a 96-well plate. After 12 hours therefrom, the medium was replaced with a culture solution (DMEM containing 5% (v/v) charcoal-treated serum). The cells were cotransfected with pBIND-ERα for the expression of ERα LBD or pBIND-ERβ for the expression of ERβ LBD (Promega Corp.) and pGL4.35[luc2P/9XGAL4UAS/Hygro](Promega Corp.) using Lipofectamine 2000 (Invitrogen Corp.) according to the protocol attached to the product. 24 hours after transfection, the medium was replaced with a culture solution containing a test sample, followed by culture for another 24 hours. The activity measurement of firefly luciferase (index for the ligand binding activity of ER) and Renilla reniformis luciferase (index for the transfection efficiency of the plasmids) was carried out using Dual-Glo™ Luciferase Assay System (Promega Corp.) according to the attached protocol. The luminescence intensity of the firefly luciferase was divided by the luminescence intensity of the Renilla reniformis luciferase to calculate a relative light unit (RLU)."}, "[1]": {"test_system": "back skin browning induced by testosterone", "assay": "Effect on sebum secretion (back skin browning) in testosterone-treated rat", "type": "in vivo", "conditions": "testosterone 3 mg/kg/day plus test substance, subcutaneous osmotic pump, 28 days", "description": "12-week-old male Slc:SD (SPF) rats were obtained from Japan SLC, Inc. An acclimatization period was established for 1 week after receipt. During the acclimatization period, the rats were allowed to freely ingest a powder diet (AIN-93G). 2) Implantation of Osmotic Pump After body weight measurement, back hair was shaved under isoflurane (AbbVie GK) inhalation anesthesia, and carprofen was subcutaneously administered to the rats. Then, an incision of approximately 1 cm at the maximum was made on the cranial side in the back. An osmotic minipump Alzet (Muromachi Kikai Co., Ltd.) containing testosterone and compound 17-F or finasteride (Sigma-Aldrich Co. LLC) was subcutaneously implanted. From this osmotic pump, testosterone (3 mg/kg body weight/day) (Sigma-Aldrich Co. LLC) and compound 17-F (0.1 mg/body weight/day or 1 mg/kg body weight/day) or finasteride (0.1 mg/kg body weight/day or 1 mg/kg body weight/day) were continuously administered for 28 days. Since the implantation of the osmotic pump, the rats were allowed to freely ingest customized feed AIN-93G (Oriental Yeast Co., Ltd.) free from components derived from soybeans. 3) Photographing of Skin and Harvesting of Prostate After a lapse of 28 days, body weights were measured, and subsequently, the rats were euthanized by blood letting under isoflurane anesthesia. […] Wet weights were measured. […]"}}}
{"smiles": "Oc1ccc(CC(C=C(F)F)c2ccc(O)cc2F)c(F)c1", "note": "(stereo not shown) [Compound 17-F, 4,4′-(4,4-difluorobut-3-ene-1,2-diyl)bis(3-fluorophenol)]", "values": [{"measurement": "relative light unit (RLU), transcription activation ERα", "setting": "ERα; 0.1 pM", "result": 0.008213}, {"measurement": "relative light unit (RLU), transcription activation ERα", "setting": "ERα; 1 pM", "result": 0.01023}, {"measurement": "relative light unit (RLU), transcription activation ERα", "setting": "ERα; 10 pM", "result": 0.01835}, {"measurement": "relative light unit (RLU), transcription activation ERα", "setting": "ERα; 100 pM", "result": 0.04125}, {"measurement": "relative light unit (RLU), transcription activation ERα", "setting": "ERα; 1000 pM", "result": 0.06202}, {"measurement": "relative light unit (RLU), transcription activation ERα", "setting": "ERα; 10000 pM", "result": 0.05401}, {"measurement": "melting point", "result": "90 to 91", "unit": "°C"}, {"measurement": "relative light unit (RLU), ligand binding activity ERα", "setting": "ERα LBD; 0.01 nM", "result": 0.02573}, {"measurement": "relative light unit (RLU), ligand binding activity ERα", "setting": "ERα LBD; 0.1 nM", "result": 0.06025}, {"measurement": "relative light unit (RLU), ligand binding activity ERα", "setting": "ERα LBD; 1 nM", "result": 0.2198}, {"measurement": "relative light unit (RLU), ligand binding activity ERα", "setting": "ERα LBD; 10 nM", "result": 1.873}, {"measurement": "relative light unit (RLU), ligand binding activity ERα", "setting": "ERα LBD; 100 nM", "result": 3.193}, {"measurement": "skin browning induced by testosterone (sebum secretion, FIG. 3)", "setting": "[1]", "result": "markedly inhibited"}]}
